Measured values from patent US20090221600A1, “PYRIDO-PYRIDIMIDINE DERIVATIVES USEFUL AS ANTIINFLAMMATORY AGENTS” (priority 2005, published 2009).

- melting point: 201.8 to 203.2 °C
Structure (SMILES): Cc1ccccc1-c1cc2cnc(NC3CCN(Cc4ccccc4)CC3)nc2n(C2CCOCC2)c1=O [Compound No. 9, 2-[(1-Benzyl-piperidin-4-yl)amino]-6-(2-methyl-phenyl)-8-(tetrahydro-2H-pyran-4-yl)pyrido[2,3-d]pyrimidin-7(8H)-one]
